How the values were obtained:
[1] = Drug excretion in New Zealand white rabbit bile assessed as NSC-102816 equivalent excretion at 15 mg/kg, iv after 8 hrs by liquid scintillation counting; type: ADME, organism-based, Oryctolagus cuniculus; set-up: dose 15 mg/kg, route intravenous; conditions: in vivo
[2] = Drug excretion in New Zealand white rabbit urine assessed as NSC-102816 equivalent excretion at 15 mg/kg, iv after 8 hrs by liquid scintillation counting; type: ADME, organism-based, Oryctolagus cuniculus; set-up: dose 15 mg/kg, route intravenous; conditions: in vivo

Drug excretion [1] [%ID] | Drug excretion [2] [%ID] | Compound
0.88 | 2.53 | Nc1n[14cH]n([C@@H]2O[C@H](CO)[C@@H](O)[C@H]2O)c(=O)n1
1 | 35.3 | N[14c]1ncn([C@@H]2O[C@H](CO)[C@@H](O)[C@H]2O)c(=O)n1

Source: ChEMBL document CHEMBL3244184, “Synthesis of 5-azacytidine-6-13C and -6-14C” (J Med Chem, 1977)
